The record followed here is patent US20240025887A1, “THIENYL AND CYCLOALKYL AMINOPYRIMIDINE COMPOUNDS AS INHIBITORS OF NUAK KINASES, COMPOSITIONS AND USES THEREOF” (Ontario Institute for Cancer Research (OICR), priority 2021, published 2024).

What all share (assay type): biochemical
One experiment deals with T1, Aurora A (Homo sapiens, UniProt O14965).
T1 sequence (O14965 1-403): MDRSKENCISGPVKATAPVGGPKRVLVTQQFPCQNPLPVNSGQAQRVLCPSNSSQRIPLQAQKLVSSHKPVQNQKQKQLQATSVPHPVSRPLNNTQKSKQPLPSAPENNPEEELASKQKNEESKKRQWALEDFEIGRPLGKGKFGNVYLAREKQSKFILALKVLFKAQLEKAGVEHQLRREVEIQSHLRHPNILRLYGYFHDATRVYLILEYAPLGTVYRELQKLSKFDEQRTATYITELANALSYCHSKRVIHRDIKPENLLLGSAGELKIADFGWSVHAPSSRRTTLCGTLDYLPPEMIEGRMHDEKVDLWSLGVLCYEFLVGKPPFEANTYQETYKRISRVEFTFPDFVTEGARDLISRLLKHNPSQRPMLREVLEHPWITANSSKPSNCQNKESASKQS
Kind of experiment: Aurora A counter screen. Particulars: read-out: AUR-A (IC50). On the procedure:
(§1) To identify small molecule NUAK inhibitors, a biochemical NUAK2 enzymatic assay was outsourced to Eurofins. This assay was done radiometrically using full-length, recombinant enzyme. NUAK2 (h) was incubated with 8 mM MOPS pH 7.0, 0.2 mM EDTA, 300 μM […], 10 mM magnesium acetate and […] (specific activity and concentration as required). The reaction was initiated by the addition of the Mg/ATP mix. After incubation for 40 minutes at room temperature, the reaction was stopped by the addition of phosphoric acid to a concentration of 0.5%. 10 μL of the reaction was then spotted onto a P30 filter mat and washed four times for 4 minutes in 0.425% phosphoric acid and once in methanol prior to drying and scintillation counting. Compounds were routinely counter screened against Aurora A and NUAK1. The results are shown in Table 1 where IC50s are reported the following ranges: A: 0.1-10 nM; B: 11-100 nM; C: 101-1000 nM; D: >1000 nM for the compounds of Formula I)
For orientation: Counterscreens check selectivity or assay interference.

The target in a further experiment is T2, NUAK2 (h) (Homo sapiens, UniProt Q9H093).
T2 construct: This assay was done radiometrically using full-length, recombinant enzyme; purchased Eurofins
T2 sequence (Q9H093 1-628): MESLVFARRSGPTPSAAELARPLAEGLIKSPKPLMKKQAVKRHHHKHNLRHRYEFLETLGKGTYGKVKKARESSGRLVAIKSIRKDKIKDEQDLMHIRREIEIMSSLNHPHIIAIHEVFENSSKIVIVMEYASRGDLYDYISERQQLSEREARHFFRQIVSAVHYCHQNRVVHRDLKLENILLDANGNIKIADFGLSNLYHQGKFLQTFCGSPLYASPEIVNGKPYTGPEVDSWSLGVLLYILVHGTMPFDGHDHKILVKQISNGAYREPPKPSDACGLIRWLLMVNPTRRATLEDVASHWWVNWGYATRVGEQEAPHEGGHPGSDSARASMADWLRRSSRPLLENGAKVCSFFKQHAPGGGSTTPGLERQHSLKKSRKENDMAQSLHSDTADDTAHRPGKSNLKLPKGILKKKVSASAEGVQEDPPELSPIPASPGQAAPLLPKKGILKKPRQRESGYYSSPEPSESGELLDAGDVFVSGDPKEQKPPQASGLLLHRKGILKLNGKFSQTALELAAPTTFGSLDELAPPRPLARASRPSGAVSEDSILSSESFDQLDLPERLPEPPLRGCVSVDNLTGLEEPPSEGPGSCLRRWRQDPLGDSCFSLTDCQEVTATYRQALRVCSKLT
Kind of experiment: NUAK2 enzymatic assay (radiometric, Eurofins). As to conditions: for IC50: radiometric, full-length recombinant enzyme; for AUR-A (IC50, nM)/NUAK2 (IC50, nM): NUAK2 selectivity over Aurora-A, ratio of IC50s. On the procedure:
as §1

The target in another experiment is T3, NUAK1 (Homo sapiens, UniProt O60285).
T3 sequence (O60285 1-661): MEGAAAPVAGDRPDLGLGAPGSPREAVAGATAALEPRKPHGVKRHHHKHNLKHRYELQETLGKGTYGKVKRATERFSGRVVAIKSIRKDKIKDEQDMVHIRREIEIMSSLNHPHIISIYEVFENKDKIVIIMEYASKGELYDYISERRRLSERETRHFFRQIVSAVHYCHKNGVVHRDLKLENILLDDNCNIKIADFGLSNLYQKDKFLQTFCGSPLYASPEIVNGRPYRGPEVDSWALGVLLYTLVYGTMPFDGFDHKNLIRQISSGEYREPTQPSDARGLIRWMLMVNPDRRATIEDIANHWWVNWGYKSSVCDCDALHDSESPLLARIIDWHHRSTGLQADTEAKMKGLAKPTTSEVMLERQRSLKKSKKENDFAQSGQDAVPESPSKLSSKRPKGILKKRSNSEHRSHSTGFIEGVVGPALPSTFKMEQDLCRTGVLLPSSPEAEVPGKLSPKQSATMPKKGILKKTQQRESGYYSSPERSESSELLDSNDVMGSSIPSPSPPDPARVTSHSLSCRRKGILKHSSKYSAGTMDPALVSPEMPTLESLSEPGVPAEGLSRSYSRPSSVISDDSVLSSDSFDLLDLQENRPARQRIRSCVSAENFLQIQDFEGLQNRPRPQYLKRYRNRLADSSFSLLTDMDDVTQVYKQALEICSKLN
As to the kind of experiment: NUAK1 counter screen. On the procedure: as §1

The term IC50 denotes the concentration that inhibits the measured activity by half.

A value given as a limit tells only on which side of the number the result lay.

Regarding `CC(C)N1C[C@@H]2C[C@H]1CN2c1ccc(Nc2ncc(Cl)c(Nc3ccsc3C(N)=O)n2)c(OC(F)F)c1` (stereo in doubt) [Compound I-35, 3-((5-chloro-2-((2-(difluoromethoxy)-4-((1S,4S)-5-isopropyl-2,5-diazabicyclo[2.2.1]heptan-2-yl)phenyl)amino)pyrimidin-4-yl)amino)thiophene-2-carboxamide], the values for the IC50 on Aurora A, at NUAK2 (h) and at NUAK1 were 101 to 1000 nM, 11 to 100 nM and 11 to 100 nM, respectively.

`CC(C)N1C[C@@H]2C[C@H]1CN2c1ccc(Nc2ncc(Cl)c(Nc3sccc3C(N)=O)n2)c(OC(F)F)c1` (stereo in doubt) [Compound I-36, 2-((5-chloro-2-((2-(difluoromethoxy)-4-((1S,4S)-5-isopropyl-2,5-diazabicyclo[2.2.1]heptan-2-yl)phenyl)amino)pyrimidin-4-yl)amino)thiophene-3-carboxamide]: the IC50 at Aurora A fell in the range of 101 to 1000 nM; at NUAK2 (h), 11 to 100 nM; at NUAK1, 11 to 100 nM.

As for `COc1cc(N2CCN(C)CC2)ccc1Nc1ncc(Cl)c(Nc2ccsc2C(N)=O)n1` [Compound C-1, reference compound], the IC50 was in the range of 11 to 100 nM on Aurora A, 0.1 to 10 nM on NUAK2 (h) and 0.1 to 10 nM at NUAK1. At NUAK2 (h), the “AUR-A (IC50, nM)/NUAK2 (IC50, nM)” value was found to be 6.

Consider `COc1c(Nc2ncc(Cl)c(Nc3ccsc3C(N)=O)n2)ccc(N2CCN(C)CC2)c1F` [Compound C-2, reference compound], for which the IC50 at Aurora A is 101 to 1000 nM; on NUAK2 (h) it was 0.1 to 10 nM; at NUAK1 it was 0.1 to 10 nM. Further, the “AUR-A (IC50, nM)/NUAK2 (IC50, nM)” value at NUAK2 (h) is 71.

In the case of `COc1cc(N2CCC(N3CCN(C)CC3)CC2)ccc1Nc1ncc(Cl)c(Nc2ccsc2C(N)=O)n1` [Compound C-3, reference compound], the results for the IC50 at Aurora A, at NUAK2 (h) and against NUAK1 were 101 to 1000 nM, 11 to 100 nM and 11 to 100 nM, respectively. Moreover, at NUAK2 (h), the “AUR-A (IC50, nM)/NUAK2 (IC50, nM)” value turned out to be 6.

For `CN1CCN(c2ccc(Nc3ncc(Cl)c(Nc4ccsc4C(N)=O)n3)c(Cl)c2F)CC1` [Compound C-4, reference compound], the IC50 was 101 to 1000 nM on Aurora A, 0.1 to 10 nM at NUAK2 (h) and 0.1 to 10 nM against NUAK1. Besides, the “AUR-A (IC50, nM)/NUAK2 (IC50, nM)” value at NUAK2 (h) was 50.

For the molecule `Cc1c(Nc2ncc(Cl)c(Nc3ccsc3C(N)=O)n2)ccc(N2CCN(C)CC2)c1F` [Compound C-5, reference compound], the IC50 is 101 to 1000 nM on Aurora A, 0.1 to 10 nM at NUAK2 (h) and 11 to 100 nM against NUAK1. Besides, the “AUR-A (IC50, nM)/NUAK2 (IC50, nM)” value on NUAK2 (h) is recorded as 14.

With `CC(C)Oc1cc(N2CCN(C)CC2)ccc1Nc1ncc(Cl)c(N[C@@H]2CCCC[C@@H]2C(N)=O)n1` [Compound C-6, reference compound], the IC50 at Aurora A was over 1000 nM; at NUAK2 (h), 101 to 1000 nM; on NUAK1, over 1000 nM. The “AUR-A (IC50, nM)/NUAK2 (IC50, nM)” value on NUAK2 (h) turned out to be 14.

Regarding `CNC(=O)c1sccc1Nc1nc(Nc2ccc(N3CCN(C)CC3)cc2C(F)(F)F)ncc1Cl` [Compound I-59, 3-((5-chloro-2-((4-(4-methylpiperazin-1-yl)-2-(trifluoromethyl)phenyl)amino)pyrimidin-4-yl)amino)-N-methylthiophene-2-carboxamide], the IC50 at Aurora A is over 1000 nM; on NUAK2 (h), 11 to 100 nM.

With `CN1CCN(C2CCN(c3ccc(Nc4ncc(Cl)c(Nc5sccc5C(N)=O)n4)c(OC(F)F)c3)CC2)CC1` [Compound I-74, 2-((5-chloro-2-((2-(difluoromethoxy)-4-(4-(4-methylpiperazin-1-yl)piperidin-1-yl)phenyl)amino)pyrimidin-4-yl)amino)thiophene-3-carboxamide], the concentration for half-maximal inhibition (IC50) on Aurora A is over 1000 nM; at NUAK1, 11 to 100 nM.

As to `COc1cnc(Nc2ccc(N3CCN(C)CC3)cc2OC(F)F)nc1Nc1ccsc1C(N)=O` [Compound I-81], the figures for the half-maximal inhibitory concentration (IC50) on NUAK2 (h) and against NUAK1 were 11 to 100 nM and 101 to 1000 nM, respectively.
